Data as given in patent US5185352A, “Alkoxy-4(1H)-pyridone derivatives, processes for the preparation thereof and pharmaceutical compositions containing them” (Goedecke Aktiengesellschaft, priority 1988, dated 1993).
Counter-ions that a name gives are not always drawn.

Biological target: calcium- and phospholipid-dependent protein kinase (PKC)
Assay: Inhibition of the activity of protein kinase C (incorporation of P^32-labelled phosphate into histone H-1)
Format: biochemical
Conditions: PKC enriched from rat brain; histone H-1 substrate; 5 min, 30° C.; pH 7.5
Source text: For the clarification of the inhibiting influence of compounds of formula I according to the present invention on the calcium- and phospholipid-dependent protein kinase (PKC), this enzyme activity was enriched from rat brain. Using the purification steps described in the literature (J. Biol. Chem., 260, 15718-15722/1985), in the case of a purification consisting of two steps, there was utilized the property of the enzyme to bind to cell membranes in the presence of calcium and to be dissolved off again by calcium chelators (EGTA). In the first enrichment step, there took place the binding of the PKC to membranes of the rat brain and in the second step on so-called inside-out vesicles or erythrocytes. After dissolving off from the erythrocyte membranes and rebuffering, the PKC preparation was present in 10 mM HEPES, 1 mM DTT, 0.1% PEG 20000, pH 7.5. Under these conditions, it could be stored at -70° C. for several months without loss of activity.
The activity of the enzyme was determined via the incorporation of P^32 -labelled phosphate into the protein histone H-1 (Sigma Type III) which can be phosphorylated by PKC.
The test thereby contains the following components: 50 mM HEPES-NaOH (pH 7.5), 5 mM magnesium chloride, 1 mM DTT, 4 μm. free calcium ions, 10 μMaTP, 1 μg phosphatidylserine, 0.2 μg 1,2-diolein, as well as 40 μg histone H-1 and optionally the test substance.
The batch is preincubated for 4 minutes at 30° C. and the reaction then started by the addition of 5 nM PKC. After incubating for 5 minutes at 30° C., the reaction is stopped with 10% TCA and the samples then filtered off. The phosphate incorporation is determined by Cerenkov counting in a scintillation counter. The kinase activity measured in the absence of the test substance was, in each case, taken as being 100% and the inhibiting action of the compounds of formula I referred thereto as percentages.

IC50 | Compound
2600 nM | CCCCCCCCCCCCCCCCCCOc1cn(Cc2ccccc2)c(CNCCCNC(C)c2ccccc2)cc1=O (racemic) [Example 83, (±)-1-Benzyl-5-octadecyloxy)-2-{N-[3-(1-phenylethyl)aminopropyl]-aminomethyl}-4(1H)-pyridone·trihydrochloride]
4400 nM | CCCCCCCCCCCCCCCCCCOc1cn(Cc2ccccc2)c(CN2CCN(C(C)c3ccccc3)CC2)cc1=O (racemic) [Example 97, (±)-1-[(1-Benzyl-5-octadecyloxy-4(1H)-pyridone-2-yl)methyl]-4-(1-phenylethyl)piperazine·trihydrochloride 3/4 H2 O]
5400 nM | CCCCCCCCCCCCCCCCCCOc1cn(C(C)c2ccccc2)c(CN2CCN(Cc3ccccc3)CC2)cc1=O (racemic) [Example 98, (±)-1-[(5-Octadecyloxy-1-(1-phenylethyl)-4(1H)-pyridone-2-yl)-methyl]-4-benzylpiperazine]
2000 nM | CCCCCCCCCCCCCCCCCCOc1cn(Cc2ccccc2)c(CN2CCNCC2C)cc1=O (racemic) [Example 102, (±)-1-[(1-Benzyl-5-octadecyloxy-4(1H)-pyridon-2-yl)methyl]-2-methylpiperazine fumarate]
2700 nM | CCCCCCCCCCCCCCCCCCOc1cn(C(C)c2ccccc2)c(CN2CCN(Cc3ccccc3)CC2)cc1=O (single isomer, unassigned; (+)) [Example 100, (+)-1-[(5-Octadecyloxy-1-(1-phenylethyl)-4(1H)-pyridone-2-yl)-methyl]-4-benzylpiperazine]
5200 nM | CCCCCCCCCCCCCCCCCCOc1cn(C(C)c2ccccc2)c(CN2CCN(Cc3ccccc3)CC2)cc1=O (single isomer, unassigned; (-)) [Example 99, (-)-1-[(5-Octadecyloxy-1-(1-phenylethyl)-4(1H)-pyridone-2-yl)-methyl]-4-benzylpiperazine]
1900 nM | CCCCCCCCCCCCCCCCCCOc1cn(Cc2ccc(C)cc2)c(CNCCCN(C)C)cc1=O [Example 76, 2-[N-(3-Dimethylaminopropyl)aminomethyl]-1-(4-methylbenzyl)-5-octadecyloxy-4(1H)-pyridone trihydrochloride hemihydrate]
2300 nM | CCCCCCCCCCCCCCCCCCOc1cn(Cc2ccccc2)c(CNCCCCN)cc1=O [Example 77, 2-[N-(4-Aminobutyl)aminomethyl]-1-benzyl-5-octadecyloxy-4(1H)-pyridone trihydrochloride]
4600 nM | CCCCCCCC/C=C\CCCCCCCCOc1cn(Cc2ccccc2)c(CNCCCN(C)C)cc1=O [Example 78]
2200 nM | CCCCCCCCCCCCCCCCCCOc1cn(-c2ccc(OCc3ccccc3)cc2)c(CNCCCN(C)C)cc1=O [Example 79, 1-(4-Benzyloxyphenyl)-2-[N-(3-dimethylaminopropyl)aminomethyl]-5-octadecyloxy-4(1H)-pyridone]
2600 nM | CCCCCCCCCCCCCCCCCCOc1cn(-c2ccc(OCc3ccccc3)cc2)c(CNCCCN(C)C)cc1=O [Example 80, 1-(4-Benzyloxyphenyl)-2-[N-(3-dimethylaminopropyl)aminomethyl]-5-octadecyloxy-4(1H)-pyridone·difumarate·2,5 H2 O]
3400 nM | CCCCCCCCCCCCCCCCCCOc1cn(Cc2ccc(O)cc2)c(CNCCCN(C)C)cc1=O [Example 84]
5800 nM | CCCCCCCCCCCCCCCCCCOc1cn(-c2ccc(O)cc2)c(CNCCCN(C)C)cc1=O [Example 85, 2-[N-(3-Dimethylaminopropyl)aminomethyl]-1-(4-hydroxyphenyl)-5-octadecyloxy-4(1H)-pyridone·trihydrochloride·0,5 H2 O]
1800 nM | CCCCCCCCCCCCCCCCCCOc1cn(Cc2ccccc2)c(CN(C)CCCN(C)C)cc1=O [Example 89, 1-Benzyl-2-[N-(3-dimethylaminopropyl)-N-methylaminomethyl]-5-octadecyloxy-4(1H)-pyridone trihydrochloride]
5500 nM | CCCCCCCCCCCCCCCCCCOc1cn(Cc2ccccc2)c(CN2CCN(Cc3ccccc3)CC2)cc1=O [Example 93, 1-[(1-Benzyl-5-octadecyloxy-4(1H)-pyridone-2-yl)methyl]-4-benzylpiperazine·dioxlate·1/2 H2 O]
2400 nM | CCCCCCCCCCCCCCCCCCOc1cn(Cc2ccccc2)c(CN2CCN(CCc3ccccc3)CC2)cc1=O [Example 94, 1-[(1-Benzyl-5-octadecyloxy-4(1H)-pyridone-2-yl)methyl]-4-(2-phenylethyl)piperazine·trihydrochloride·1/2 H2 O]
4300 nM | CCCCCCCCCCOc1cn(Cc2ccccc2)c(CN2CCN(CCc3ccccc3)CC2)cc1=O [Example 95, 1-[(1-Benzyl-5-decyloxy-4(1H)-pyridone-2-yl)-methyl]4-(2-phenylethyl)piperazine·dihydrochloride]
4000 nM | CCCCCCCCCCCCCCCCCCOc1cn(Cc2ccccc2)c(COCCCN(C)C)cc1=O [Example 103, 1-Benzyl-2-(3-dimethylaminopropoxymethyl)-5-octadecyloxy-4(1H)-pyridone dihydrochloride]
2000 nM | CCCCCCCCCCCCCCCCCCOc1cn(CCC)c(COCCCN(C)C)cc1=O [Example 105, 2-(3-Dimethylaminopropoxymethyl)-5-octadecyloxy-1-propyl-4(1H)-pyridone dihydrochloride 3/4 hydrate]

Further lines, the compound ahead of its results:

Compound | IC50
CCCCCCCCCCCCCCCCCCOc1cn(CCCN(C)C)c(CO)cc1=O [Example 21, 1-(3-Dimethylaminopropyl)-2-hydroxymethyl-5-octadecyloxy-4(1H)-pyridone] | 2400 nM
CCCCCCCCCCCCCCCCCCOc1cn(C)c(CNCCCN(C)C)cc1=O [Example 56, 2-[N-(3-Dimethlaminopropyl)-aminomethyl]-1-methyl-5-octadecyloxy-4(1H)-pyridone trihydrochloride hemihydrate] | 2900 nM
CCCCCCCCCCCCCCCCCCOc1cn(Cc2ccccc2)c(CN(C)CCN(C)C)cc1=O [Example 57, 1-Benzyl-2-[N-(2-dimethylaminoethyl)-N-methylaminomethyl]-5-octadecyloxy-4(1H)-pyridone trihydrochloride] | 1900 nM
CCCCCCCCCCCCCCCCCCOc1cn(CCC)c(CNCCCN(C)C)cc1=O [Example 59, 2-[N-(3-Dimethylaminopropyl)aminomethyl]-5-octadecyloxy-1-propyl-4(1H)-pyridone dioxalate] | 2900 nM
CCCCCCCCCCCCCCCCCCOc1cn(C)c(CNCCCN)cc1=O [Example 60, 2-[N-(3-Aminopropyl)-aminomethyl]-1-methyl-5-octadecyloxy-4(1H)-pyridone trihydrochloride] | 2700 nM
CCCCCCCCCCCCCCCCCCOc1cn(Cc2ccccc2)c(CNCCCN)cc1=O [Example 61, 2-[N-(3-Aminopropyl)-aminomethyl]-1-benzyl-5-octadecyloxy-4(1H)-pyridone trihydrochloride] | 2100 nM
CCCCCCCCCCCCCCOc1cn(Cc2ccccc2)c(CNCCCN(C)C)cc1=O [Example 65, 1-Benzyl-2-[N-(3-dimethylaminopropyl)aminomethyl]-5-tetradecyloxy-4(1H)-pyridone dioxalate monohydrate] | 6500 nM
CCCCCCCCCCCCCCCCCCCCOc1cn(Cc2ccccc2)c(CNCCCN(C)C)cc1=O [Example 66, 1-Benzyl-2-[N-(3-dimethylaminopropyl)aminomethyl]-5-eicosanyloxy-4(1H)-pyridone dioxalate monohydrate] | 2500 nM
CCCCCCCCCCCCCCCCCCOc1cn(CC2CCCCC2)c(CNCCCN(C)C)cc1=O [Example 68, 1-Cyclohexylmethyl-2-[N-(3-dimethylaminopropyl)aminomethyl]-5-octadecyloxy-4(1H)-pyridone difumarate] | 1900 nM
CCCCCCCCCCCCCCCCCCOc1cn(-c2ccccc2)c(CNCCCN(C)C)cc1=O [Example 70, 2-[N-(3-Dimethylaminopropyl)aminomethyl]-5-octadecyloxy-1-phenyl-4(1H)-pyridone] | 2200 nM
CCCCCCCCCCCCCCCCCCOc1cn(Cc2ccc(OC)cc2)c(CNCCCN(C)C)cc1=O [Example 72, 2-[N-(3-Dimethylaminopropyl)aminomethyl]-1-(4-methoxybenzyl)-5-octadecyloxy-4(1H)-pyridone trihydrochloride monohydrate] | 3600 nM
CCCCCCCCCCCCCCCCCCOc1cn(Cc2ccccc2)c(CN(C)C)cc1=O [Example 73, 1-Benzyl-2-dimethylaminomethyl-5-octadecyloxy-4(1H)-pyridone oxalate hemihydrate] | 4400 nM
CCCCCCCCCCCCCCCCCCOc1cn(Cc2ccccc2OC)c(CNCCCN(C)C)cc1=O [Example 74, 2-[N-(3-Dimethylaminopropyl)aminomethyl]-1-(2-methoxybenzyl)-5-octadecyloxy-4(1H)-pyridone difumarate] | 2100 nM
CCCCCCCCCCCCCCCCCCOc1cn(Cc2ccccc2)c(CN(C)Cc2ccccc2)cc1=O [Example 75, 1-Benzyl-2-(N-benzyl-N-methylaminomethyl)-5-octadecyloxy-4(1H)-pyridone] | 9500 nM
